Values after ≈ are worked out from the molar mass of the structure shown. Like-named read-outs stand apart in the source and are kept apart here.
What was measured:
S. aureus MRSA 1630 [1] = assay: microbe, parasite or virus in culture; settings: Staphylococcus aureus, 24 h
S. aureus MRSA 3511 [2] = assay: microbe, parasite or virus in culture; settings: Staphylococcus aureus, 24 h
S. aureus MRSA 1635 [3] = assay: microbe, parasite or virus in culture; settings: Staphylococcus aureus, 24 h
S. aureus MRSA 3126 [4] = assay: microbe, parasite or virus in culture; settings: Staphylococcus aureus, 24 h
S. aureus MRSA 5157 [5] = assay: microbe, parasite or virus in culture; settings: Staphylococcus aureus, 24 h
S. aureus MRSA 3-359 [6] = assay: microbe, parasite or virus in culture; settings: Staphylococcus aureus, 24 h
S. aureus MRSA 5159 [7] = assay: microbe, parasite or virus in culture; settings: Staphylococcus aureus, 24 h
S. aureus MRSA 2-122 [8] = assay: microbe, parasite or virus in culture; settings: Staphylococcus aureus, 24 h
S. aureus MRSA 5156 [9] = assay: microbe, parasite or virus in culture; settings: Staphylococcus aureus, 24 h
S. aureus MRSA 4761 [10] = assay: microbe, parasite or virus in culture; settings: Staphylococcus aureus, 24 h
S. aureus MRSA 1870 [11] = assay: microbe, parasite or virus in culture; settings: Staphylococcus aureus, 24 h
S. aureus [12] = assay: microbe, parasite or virus in culture; settings: Staphylococcus aureus, 24 h
S. aureus MRSA 3518 [13] = assay: microbe, parasite or virus in culture; settings: Staphylococcus aureus, 24 h
S. aureus MRSA 0027 [14] = assay: microbe, parasite or virus in culture; settings: Staphylococcus aureus, 24 h
S. aureus MRSA 2-122 [15] = settings: 24 hours at 37° C.
S. aureus MRSA 1870 [16] = settings: 24 hours at 37° C.
S. aureus MRSA 5156 [17] = settings: 24 hours at 37° C.
S. aureus MRSA 0027 [18] = settings: 24 hours at 37° C.
S. aureus MRSA 1630 [19] = settings: 24 hours at 37° C.
S. aureus MRSA 5159 [20] = settings: 24 hours at 37° C.
S. aureus MRSA 1635 [21] = settings: 24 hours at 37° C.
S. aureus MRSA 5157 [22] = settings: 24 hours at 37° C.
S. aureus MRSA 3511 [23] = settings: 24 hours at 37° C.
S. aureus MRSA 3-359 [24] = settings: 24 hours at 37° C.
S. aureus MRSA 3518 [25] = settings: 24 hours at 37° C.
S. aureus MRSA 4761 [26] = settings: 24 hours at 37° C.
S. aureus MRSA 3126 [27] = settings: 24 hours at 37° C.
S. aureus [28] = settings: 24 hours at 37° C.

Compound | MIC (S. aureus MRSA 2-122 [15]) | MIC (S. aureus MRSA 1870 [16]) | MIC (S. aureus MRSA 5156 [17]) | MIC (S. aureus MRSA 0027 [18]) | MIC (S. aureus MRSA 1630 [19]) | MIC (S. aureus MRSA 5159 [20]) | MIC (S. aureus MRSA 1635 [21]) | MIC (S. aureus MRSA 5157 [22]) | MIC (S. aureus MRSA 3511 [23]) | MIC (S. aureus MRSA 3-359 [24]) | MIC (S. aureus MRSA 3518 [25]) | MIC (S. aureus MRSA 4761 [26]) | MIC (S. aureus MRSA 3126 [27]) | further results
CC[C@H]1OC(=O)[C@H](C)[C@@H](O[C@H]2C[C@@](C)(OC)[C@@H](O)[C@H](C)O2)[C@H](C)[C@@H](O[C@@H]2O[C@H](C)C[C@H](N(C)C)[C@H]2O)[C@](C)(O)C[C@@H](C)C(=O)[C@H](C)[C@@H](O)[C@]1(C)O [Erythromycin, erythromycin] | – | – | – | – | – | – | – | – | – | – | – | – | – | MIC (S. aureus MRSA 1630 [1]): > 256 µM; MIC (S. aureus MRSA 3511 [2]): > 256 µM; MIC (S. aureus MRSA 1635 [3]): > 256 µM; MIC (S. aureus MRSA 3126 [4]): 128 µM (≈ 93.9 µg/mL); MIC (S. aureus MRSA 5157 [5]): 16 µM (≈ 11.7 µg/mL); MIC (S. aureus MRSA 3-359 [6]): > 256 µM; MIC (S. aureus MRSA 5159 [7]): 16 µM (≈ 11.7 µg/mL); MIC (S. aureus MRSA 2-122 [8]): > 256 µM; MIC (S. aureus MRSA 5156 [9]): > 256 µM; MIC (S. aureus MRSA 4761 [10]): > 256 µM; MIC (S. aureus MRSA 1870 [11]): > 256 µM; MIC (S. aureus [12]): 1 µM (≈ 0.734 µg/mL); MIC (S. aureus MRSA 3518 [13]): > 256 µM; MIC (S. aureus MRSA 0027 [14]): > 256 µM
CC[C@H](C)[C@H](NC(=O)CN)C(=O)NCC(=O)N[C@@H](C)C(=O)N[C@H](C(=O)N[C@@H](CC(C)C)C(=O)N[C@@H](CCCCN)C(=O)N[C@H](C(=O)N[C@@H](CC(C)C)C(=O)N[C@H](C(=O)N[C@H](C(=O)NCC(=O)N[C@@H](CC(C)C)C(=O)N1CCC[C@H]1C(=O)N[C@@H](C)C(=O)N[C@@H](CC(C)C)C(=O)N[C@H](C(=O)N[C@@H](CO)C(=O)N[C@@H](Cc1c[nH]c2ccccc12)C(=O)N[C@H](C(=O)N[C@@H](CCCCN)C(=O)N[C@@H](CCCNC(=N)N)C(=O)N[C@@H](CCCCN)C(=O)N[C@@H](CCCNC(=N)N)C(=O)N[C@@H](CCC(N)=O)C(=O)N[C@@H](CCC(N)=O)C(N)=O)[C@@H](C)CC)[C@@H](C)CC)[C@@H](C)O)[C@@H](C)O)C(C)C)C(C)C [Melittin, melittin] | 4 µM (≈ 11.4 µg/mL) | 4 µM (≈ 11.4 µg/mL) | 4 µM (≈ 11.4 µg/mL) | 2 µM (≈ 5.69 µg/mL) | 4 µM (≈ 11.4 µg/mL) | 8 µM (≈ 22.8 µg/mL) | 2 µM (≈ 5.69 µg/mL) | 2 µM (≈ 5.69 µg/mL) | 4 µM (≈ 11.4 µg/mL) | 4 µM (≈ 11.4 µg/mL) | 4 µM (≈ 11.4 µg/mL) | 4 µM (≈ 11.4 µg/mL) | 2 µM (≈ 5.69 µg/mL) | –
gentamycin | 128 µM | 16 µM | >256 µM | 64 µM | 64 µM | 16 µM | >256 µM | 16 µM | >256 µM | 64 µM | >256 µM | 32 µM | 32 µM | MIC (S. aureus [28]): 1 µM

Reference: patent US20190038714A1, “ANTI-INFLAMMATORY COMPOSITION COMPRISING CLAVASPIRIN PEPTIDE ANALOGUE AS EFFECTIVE INGREDIENT” (INDUSTRY-ACADEMIC COOPERATION FOUNDATION, CHOSUN UNIVERSITY, priority 2015, published 2019)
